Data taken from patent US10519152B2, “Compounds and their use in treating cancer” (AstraZeneca AB, priority 2017, dated 2019).

Target: T1, Estrogen Receptor (ERα) in MCF-7 human ductal carcinoma breast cell line (Homo sapiens, UniProt P03372)
T1 construct: endogenous in cells; host or cells: MCF-7
T1 sequence (P03372 1-595): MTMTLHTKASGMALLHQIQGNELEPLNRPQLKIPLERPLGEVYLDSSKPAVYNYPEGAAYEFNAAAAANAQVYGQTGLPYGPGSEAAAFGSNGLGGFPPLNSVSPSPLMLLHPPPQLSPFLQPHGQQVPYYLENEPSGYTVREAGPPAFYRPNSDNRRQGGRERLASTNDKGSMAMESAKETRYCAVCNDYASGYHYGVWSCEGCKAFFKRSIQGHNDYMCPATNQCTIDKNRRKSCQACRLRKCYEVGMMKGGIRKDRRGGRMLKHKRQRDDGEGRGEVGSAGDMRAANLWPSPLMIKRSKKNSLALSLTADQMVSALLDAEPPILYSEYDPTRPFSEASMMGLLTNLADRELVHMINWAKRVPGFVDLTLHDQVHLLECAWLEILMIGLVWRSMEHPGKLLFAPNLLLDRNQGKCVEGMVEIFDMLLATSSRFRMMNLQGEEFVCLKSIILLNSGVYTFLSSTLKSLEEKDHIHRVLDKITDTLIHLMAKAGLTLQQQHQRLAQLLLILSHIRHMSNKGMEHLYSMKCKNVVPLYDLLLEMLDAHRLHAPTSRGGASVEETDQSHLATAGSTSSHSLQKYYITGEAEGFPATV
Test: MCF-7 ER degradation assay (cell based immuno-fluorescence)
Conditions: MCF-7 cells; for ER degradation ≥ 90% at 0.3 μM: ER degradation by fulvestrant at 0.3 μM is defined as 100%; for DC50: 18-22 hours incubation, 50% reduction of ERα expression, single experiment or average of two or more, read-out: MCF-7 ER degradation IC50
Outline: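 MCF-7 human ductal carcinoma breast cells were seeded at 3.75×10^4 cells per mL (40 μL per well) in 384 well plates with phenol red free DMEM containing 2 mM L-Glutamine and 5% (v/v) Charcoal/Dextran treated foetal calf serum. After overnight culture, compounds were acoustically dispensed, incubated 18-22 hours, then cells were formaldehyde-fixed and immunostained for ERα.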

SMILES | ER degradation ≥ 90% at 0.3 μM | DC50
Cc1ncsc1-c1ccc(CNC(=O)[C@@H]2C[C@@H](O)CN2C(=O)[C@@H](NC(=O)COCCCCCCOc2cc(F)c([C@@H]3c4[nH]c5ccccc5c4C[C@@H](C)N3CC(C)(C)F)c(F)c2)C(C)(C)C)cc1 [Example 51, (2S,4R)-1-((S)-2-(2-((6-(3,5-difluoro-4-((1R,3R)-2-(2-fluoro-2-methylpropyl)-3-methyl-2,3,4,9-tetrahydro-1H-pyrido[3,4-b]indol-1-yl)phenoxy)hexyl)oxy)acetamido)-3,3-dimethylbutanoyl)-4-hydroxy-N-(4-(4-methylthiazol-5-yl)benzyl)pyrrolidine-2-carboxamide] | • | 6.8 nM
Cc1ncsc1-c1ccc(CNC(=O)[C@@H]2C[C@@H](O)CN2C(=O)[C@@H](NC(=O)COCCOCCCCOc2cc(F)c([C@@H]3c4[nH]c5ccccc5c4C[C@@H](C)N3CC(C)(C)F)c(F)c2)C(C)(C)C)cc1 [Example 128, (2S,4R)-1-((S)-2-(2-(2-(4-(3,5-Difluoro-4-((1R,3R)-2-(2-fluoro-2-methylpropyl)-3-methyl-2,3,4,9-tetrahydro-1H-pyrido[3,4-b]indol-1-yl)phenoxy)butoxy)ethoxy)acetamido)-3,3-dimethylbutanoyl)-4-hydroxy-N-(4-(4-methylthiazol-5-yl)benzyl)pyrrolidine-2-carboxamide] | •• | 0.6 nM
Cc1ncsc1-c1ccc([C@H](C)NC(=O)[C@@H]2C[C@@H](O)CN2C(=O)[C@@H](NC(=O)COCCCOCCCOc2cc(F)c([C@@H]3c4[nH]c5ccccc5c4C[C@@H](C)N3CC(C)(C)F)c(F)c2)C(C)(C)C)cc1 [Example 152, (2S,4R)-1-((S)-2-(2-(3-(3-(3,5-Difluoro-4-((1R,3R)-2-(2-fluoro-2-methylpropyl)-3-methyl-2,3,4,9-tetrahydro-1H-pyrido[3,4-b]indol-1-yl)phenoxy)propoxy)propoxy)acetamido)-3,3-dimethylbutanoyl)-4-hydroxy-N—((S)-1-(4-(4-methylthiazol-5-yl)phenyl)ethyl)pyrrolidine-2-carboxamide] | •• | 0.8 nM
Cc1ncsc1-c1ccc(CNC(=O)C2CC(O)CN2C(=O)C(NC(=O)COCCOc2cc(F)c(C3c4[nH]c5ccccc5c4CC(C)N3CC(C)(C)F)c(F)c2)C(C)(C)C)cc1 [Example 40, (2S,4R)-1-((S)-2-(2-(2-(3,5-Difluoro-4-((1R,3R)-2-(2-fluoro-2-methylpropyl)-3-methyl-2,3,49-tetrahydro-1H-pyrido[3,4-b]indol-1-yl)phenoxy)ethoxy)acetamido)-3,3-dimethylbutanoyl)-4-hydroxy-N-(4-(4-methylthiazol-5-yl)benzyl)pyrrolidine-2-carboxamide] | • | 0.6 nM
Cc1ncsc1-c1ccc(CNC(=O)[C@@H]2C[C@@H](O)CN2C(=O)[C@@H](NC(=O)COCCCCOc2cc(F)c([C@@H]3c4[nH]c5ccccc5c4C[C@@H](C)N3CC(C)(C)F)c(F)c2)C(C)(C)C)cc1 [Example 14, (2S,4R)-1-((S)-2-(2-(4-(3,5-Difluoro-4-((1R,3R)-2-(2-fluoro-2-methylpropyl)-3-methyl-2,3,4,9-tetrahydro-1H-pyrido[3,4-b]indol-1-yl)phenoxy)butoxy)acetamido)-3,3-dimethylbutanoyl)-4-hydroxy-N-(4-(4-methylthiazol-5-yl)benzyl)pyrrolidine-2-carboxamide] | • | 1.4 nM
Cc1ncsc1-c1ccc(CNC(=O)[C@@H]2C[C@@H](O)CN2C(=O)[C@@H](NC(=O)CCCCCCCCCOc2cc(F)c([C@@H]3c4[nH]c5ccccc5c4C[C@@H](C)N3CC(C)(C)F)c(F)c2)C(C)(C)C)cc1 [Example 11, (2S,4R)-1-((S)-2-(10-(3,5-Difluoro-4-((1R,3R)-2-(2-fluoro-2-methylpropyl)-3-methyl-2,3,4,9-tetrahydro-1H-pyrido[3,4-b]indol-1-yl)phenoxy)decanamido)-3,3-dimethylbutanoyl)-4-hydroxy-N-(4-(4-methylthiazol-5-yl)benzyl)pyrrolidine-2-carboxamide] | •• | 3.2 nM
Cc1ncsc1-c1ccc([C@H](C)NC(=O)[C@@H]2C[C@@H](O)CN2C(=O)[C@@H](NC(=O)COCCOCCCCCOc2cc(F)c([C@@H]3c4[nH]c5ccccc5c4C[C@@H](C)N3CC(C)(C)F)c(F)c2)C(C)(C)C)cc1 [Example 156, (2S,4R)-1-((S)-2-(2-(2-((5-(3,5-Difluoro-4-((1R,3R)-2-(2-fluoro-2-methylpropyl)-3-methyl-2,3,4,9-tetrahydro-1H-pyrido[3,4-b]indol-1-yl)phenoxy)pentyl)oxy)ethoxy)acetamido)-3,3-dimethylbutanoyl)-4-hydroxy-N—((S)-1-(4-(4-methylthiazol-5-yl)phenyl)ethyl)pyrrolidine-2-carboxamide] | •• | 1.5 nM
Cc1ncsc1-c1ccc(CNC(=O)[C@@H]2C[C@@H](O)CN2C(=O)[C@@H](NC(=O)CNCCCCCCCCOc2cc(F)c([C@@H]3c4[nH]c5ccccc5c4C[C@@H](C)N3CC(C)(C)F)c(F)c2)C(C)(C)C)cc1 [Example 147, (2S,4R)-1-((S)-2-(2-((8-(3,5-Difluoro-4-((1R,3R)-2-(2-fluoro-2-methylpropyl)-3-methyl-2,3,4,9-tetrahydro-1H-pyrido[3,4-b]indol-1-yl)phenoxy)octyl)amino)acetamido)-3,3-dimethylbutanoyl)-4-hydroxy-N-(4-(4-methylthiazol-5-yl)benzyl)pyrrolidine-2-carboxamide] | • | 5.8 nM
Cc1ncsc1-c1ccc(CNC(=O)[C@@H]2C[C@@H](O)CN2C(=O)[C@@H](NC(=O)COCC/C=C/CCOc2cc(F)c([C@@H]3c4[nH]c5ccccc5c4C[C@@H](C)N3CC(C)(C)F)c(F)c2)C(C)(C)C)cc1 [Example 22, (2S,4R)-1-((S)-2-(2-(((E)-6-(3,5-Difluoro-4-((1R,3R)-2-(2-fluoro-2-methylpropyl)-3-methyl-2,3,4,9-tetrahydro-1H-pyrido[3,4-b]indol-1-yl)phenoxy)hex-3-en-1-yl)oxy)acetamido)-3,3-dimethylbutanoyl)-4-hydroxy-N-(4-(4-methylthiazol-5-yl)benzyl)pyrrolidine-2-carboxamide] | • | 3 nM
Cc1ncsc1-c1ccc(CNC(=O)[C@@H]2C[C@@H](O)CN2C(=O)[C@@H](NC(=O)COCc2cccc(COc3cc(F)c([C@@H]4c5[nH]c6ccccc6c5C[C@@H](C)N4CC(C)(C)F)c(F)c3)n2)C(C)(C)C)cc1 [Example 132, (2S,4R)-1-((S)-2-(2-((6-((3,5-Difluoro-4-((1R,3R)-2-(2-fluoro-2-methylpropyl)-3-methyl-2,3,4,9-tetrahydro-1H-pyrido[3,4-b]indol-1-yl)phenoxy)methyl)pyridin-2-yl)methoxy)acetamido)-3,3-dimethylbutanoyl)-4-hydroxy-N-(4-(4-methylthiazol-5-yl)benzyl)pyrrolidine-2-carboxamide] | • | 0.6 nM
Cc1ncsc1-c1ccc(CNC(=O)[C@@H]2C[C@@H](O)CN2C(=O)[C@@H](NC(=O)COCCC(C)(C)CCOc2cc(F)c([C@@H]3c4[nH]c5ccccc5c4C[C@@H](C)N3CC(C)(C)F)c(F)c2)C(C)(C)C)cc1 [Example 23, (2S,4R)-1-((S)-2-(2-((5-(3,5-Difluoro-4-((1R,3R)-2-(2-fluoro-2-methylpropyl)-3-methyl-2,3,4,9-tetrahydro-1H-pyrido[3,4-b]indol-1-yl)phenoxy)-3,3-dimethylpentyl)oxy)acetamido)-3,3-dimethylbutanoyl)-4-hydroxy-N-(4-(4-methylthiazol-5-yl)benzyl)pyrrolidine-2-carboxamide] | •• | 1 nM
Cc1ncsc1-c1ccc(CNC(=O)[C@@H]2C[C@@H](O)CN2C(=O)[C@@H](NC(=O)COCc2ccc(C(=O)Nc3cc(F)c([C@@H]4c5[nH]c6ccccc6c5C[C@@H](C)N4CC(C)(C)F)c(F)c3)nc2)C(C)(C)C)cc1 [Example 144, N-(3,5-Difluoro-4-((1R,3R)-2-(2-fluoro-2-methylpropyl)-3-methyl-2,3,4,9-tetrahydro-1H-pyrido[3,4-b]indol-1-yl)phenyl)-5-((2-(((S)-1-((2S,4R)-4-hydroxy-2-((4-(4-methylthiazol-5-yl)benzyl)carbamoyl)pyrrolidin-1-yl)-3,3-dimethyl-1-oxobutan-2-yl)amino)-2-oxoethoxy)methyl)picolinamide] | •• | 0.5 nM
